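Dose response: 5 concentrations. Exposure: 48 h. Format: 96-well plates. Endpoint: linear interpolation; highest concentration if not reached. Abbreviation: GI50, concentration required for 50% inhibition of growth.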 Active and inactive are the calls of the source. Cut-off read from the data, not from the text of the source: active = GI50 up to about 1.1 µM and inactive = higher.
How the values were obtained:
Assay in all cases: NCI-60 cell line screen, 48 h
[1] = tested on: SR
[2] = tested on: RXF 393
[3] = tested on: HCC 2998
[4] = tested on: SNB-75
[5] = tested on: Malme-3M
[6] = tested on: HT-29
[7] = tested on: OVCAR-4
[8] = tested on: OVCAR-5
[9] = tested on: HOP-62
[10] = tested on: A549
[11] = tested on: T47D
[12] = tested on: UACC-257
[13] = tested on: NCI-H522
[14] = tested on: CCRF-CEM
[15] = tested on: SNB-19
[16] = tested on: SK-OV-3
[17] = tested on: BT-549
[18] = tested on: IGROV-1
[19] = tested on: MOLT-4
[20] = tested on: MCF7
[21] = tested on: SN12C
[22] = tested on: NCI-H460
[23] = tested on: UACC-62
[24] = tested on: Hs-578T
[25] = tested on: SF-295
[26] = tested on: KM12
[27] = tested on: LOX IMVI
[28] = tested on: A498
[29] = tested on: 786-0
[30] = tested on: DU-145
[31] = tested on: SK-MEL-5
[32] = tested on: HCT-116
[33] = tested on: SF-268
[34] = tested on: MDA-MB-435
[35] = tested on: ACHN
[36] = tested on: MDA-MB-231
[37] = tested on: HCT-15
[38] = tested on: SK-MEL-28
[39] = tested on: NCI-H226
[40] = tested on: TK-10
[41] = tested on: OVCAR-3
[42] = tested on: PC-3
[43] = tested on: EKVX
[44] = tested on: M14
[45] = tested on: HOP-92
[46] = tested on: SK-MEL-2
[47] = tested on: RPMI-8226
[48] = tested on: SW-620
[49] = tested on: OVCAR-8
[50] = tested on: K562
[51] = tested on: COLO 205
[52] = tested on: NCI-H23
[53] = tested on: UO-31
[54] = tested on: NCI/ADR-RES
[55] = tested on: U-251
[56] = tested on: CAKI-1
[57] = tested on: SF-539
[58] = tested on: MDA-N
[59] = tested on: HL-60

Measured: GI50

Cc1cc(CNC(=O)OCc2ccccc2)c(C)c2c1Oc1ccccc1O2
inactive: [1] > 100 µM | [2] 12.7 µM | [3] > 100 µM | [4] 11.8 µM | [5] 75.9 µM | [6] 20.2 µM | [7] 21.3 µM | [8] 43.4 µM | [9] 17.4 µM | [10] 20.9 µM | [11] 25800 nM | [12] > 100 µM | [13] 13.9 µM | [14] > 100 µM | [15] 25.5 µM | [16] 17.1 µM | [17] 62.8 µM | [18] 24.2 µM | [19] > 100 µM | [20] 49.5 µM | [21] 24.3 µM | [22] > 100 µM | [23] 26.5 µM | [24] 19.7 µM | [25] 31.8 µM | [26] 43.6 µM | [27] > 100 µM | [28] 23 µM | [29] 15 µM | [30] 71 µM | [31] > 100 µM | [32] 36.6 µM | [33] 20.7 µM | [34] > 100 µM | [35] 43.8 µM | [36] 6.67 µM | [38] > 100 µM | [39] 26.5 µM | [40] 41.8 µM | [41] 57.8 µM | [42] 43.4 µM | [43] 42.9 µM | [44] 69.7 µM | [45] 1.26 µM | [47] > 100 µM | [48] > 100 µM | [49] 17.1 µM | [50] > 100 µM | [51] 50.1 µM | [52] 24.3 µM | [53] 28.6 µM | [54] 19 µM | [55] 18.8 µM | [56] 21.1 µM
97.5 µM: [37]
active: [46] < 0.01 µM

COc1ccc(-c2nc3cc(F)ccc3s2)cc1O
active: [11] 514 nM | [20] 0.668 µM
3.05 µM: [37]
inactive: [1] 19.1 µM | [2] 36.8 µM | [3] 2.57 µM | [5] 35.1 µM | [6] 26.4 µM | [7] 28.8 µM | [8] 48.6 µM | [10] 34.1 µM | [12] 24.9 µM | [13] 16.3 µM | [14] 4.53 µM | [15] 61.7 µM | [16] 29.8 µM | [17] 17.2 µM | [18] 3.81 µM | [19] > 100 µM | [21] 84.3 µM | [22] 21.3 µM | [23] 30.7 µM | [25] 22.5 µM | [26] 12.2 µM | [27] 21.1 µM | [28] 29.7 µM | [57] 38.5 µM | [29] 18.9 µM | [30] 38 µM | [31] 22.5 µM | [32] 27.4 µM | [33] 28 µM | [34] 56.1 µM | [35] 28.7 µM | [36] 39.6 µM | [38] 75.7 µM | [58] 57.3 µM | [39] 23.8 µM | [40] 16.2 µM | [41] 29.7 µM | [42] 34.7 µM | [43] 6.59 µM | [59] 32.6 µM | [44] 26.5 µM | [46] 27.9 µM | [47] 17.6 µM | [48] 87.9 µM | [49] 26.5 µM | [50] 73.1 µM | [51] 28.7 µM | [52] 29.3 µM | [53] 30.8 µM | [54] 46.3 µM | [55] 30.1 µM | [56] 23.3 µM

COc1ccc2c3c(c4cc(OC)c(OC)cc4c2c1)CN1CCC[C@H]1[C@@H]3O [TYLOPHORININE]
active: [1] < 0.0443 µM | [5] 0.249 µM | [6] < 0.0289 µM | [7] 0.224 µM | [11] < 40.4 nM | [13] 0.29 µM | [14] < 0.0359 µM | [15] < 0.01 µM | [16] 0.0733 µM | [17] 0.493 µM | [18] < 0.0508 µM | [19] < 0.0318 µM | [21] < 0.0201 µM | [22] < 0.0474 µM | [23] < 0.0482 µM | [24] < 0.0441 µM | [25] 0.05 µM | [26] < 0.0371 µM | [27] < 0.01 µM | [28] < 0.0494 µM | [57] 0.253 µM | [32] < 0.0445 µM | [33] < 0.0453 µM | [36] < 0.0489 µM | [58] < 0.0404 µM | [39] 0.27 µM | [43] < 0.01 µM | [47] 0.0676 µM | [50] 0.0422 µM | [51] 0.039 µM | [54] 0.36 µM
